Measured values taken from the supplement of paper PMC9663587.

How the values were obtained:
Test in all cases: GR value, 72 h; higher = faster growth (1 = untreated, <0 = killing);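 note: breast cancer and non-malignant breast epithelial lines, nine half-log doses, viable cells counted by Hoechst and LIVE/DEAD dye imaging versus time-zero plates and DMSO controls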
SHP099 = compound: CC1(CCN(CC1)C2=CN=C(C(=N2)N)C3=C(C(=CC=C3)Cl)Cl)N [SHP099]
Ipatasertib/GDC0068 = compound: CC(C)NC[C@@H](C(=O)N1CCN(c2ncnc3c2[C@H](C)C[C@H]3O)CC1)c1ccc(Cl)cc1 [Ipatasertib/GDC0068]
BVD523 = compound: CC(C)Nc1cc(-c2c[nH]c(C(=O)N[C@H](CO)c3cccc(Cl)c3)c2)c(Cl)cn1 [BVD523]
Buparlisib/NVP-BKM120 = compound: Nc1cc(C(F)(F)F)c(-c2cc(N3CCOCC3)nc(N3CCOCC3)n2)cn1 [Buparlisib/NVP-BKM120]
Luminespib/NVP-AUY922 = compound: CCNC(=O)c1noc(-c2cc(C(C)C)c(O)cc2O)c1-c1ccc(CN2CCOCC2)cc1 [Luminespib/NVP-AUY922]
Vorinostat = compound: O=C(CCCCCCC(=O)Nc1ccccc1)NO [Vorinostat]
[1] = compound: CNc1nc(-c2ccc3c(N)n[nH]c3c2)cc(N2C[C@@H](C(=O)NC3CCCCC3)CC[C@H]2C)n1
[2] = compound: CCC1=CN=CN=C1N2CCN(CC2)CC3=NC4=C(N3)C=C(C=C4)C(F)(F)F
Tivantinib/ARQ197 = compound: O=C1NC(=O)[C@@H](c2cn3c4c(cccc24)CCC3)[C@@H]1c1c[nH]c2ccccc12 [Tivantinib/ARQ197]
Pictilisib/GDC0941 = compound: CS(=O)(=O)N1CCN(Cc2cc3nc(-c4cccc5[nH]ncc45)nc(N4CCOCC4)c3s2)CC1 [Pictilisib/GDC0941]
[3] = compound: CO[C@@H](C)Cn1c(=O)n(C)c2cnc3ccc(-c4cncc(C(C)(C)O)c4)cc3c21
Doxorubicin = compound: COc1cccc2c1C(=O)c1c(O)c3c(c(O)c1C2=O)C[C@@](O)(C(=O)CO)C[C@@H]3O[C@H]1C[C@H](N)[C@H](O)[C@H](C)O1 [Doxorubicin]

In the case of AU565, the GR value (SHP099; 0.001 µM) is reported as 0.972 GR, the GR value (SHP099; 0.003162 µM) is reported as 0.94 GR and the GR value (SHP099; 0.01 µM) is reported as 0.815 GR. The GR value (SHP099; 0.03162 µM) was 1.07 GR, the GR value (SHP099; 0.1 µM) was 1 GR and the GR value (SHP099; 0.3162 µM) was 0.949 GR. The GR value (SHP099; 1 µM) was 0.925 GR, the GR value (SHP099; 3.162 µM) was 0.932 GR and the GR value (SHP099; 10 µM) was 0.939 GR. The GR value (Ipatasertib/GDC0068; 0.001 µM) was 1.03 GR, the GR value (Ipatasertib/GDC0068; 0.003162 µM) was 1.08 GR and the GR value (Ipatasertib/GDC0068; 0.01 µM) was 1.03 GR. For the same cell line, the GR value (Ipatasertib/GDC0068; 0.03162 µM) was 0.996 GR, the GR value (Ipatasertib/GDC0068; 0.1 µM) was 0.976 GR and the GR value (Ipatasertib/GDC0068; 0.3162 µM) was 0.809 GR. It also gave a GR value (Ipatasertib/GDC0068; 1 µM) of 0.772 GR, a GR value (Ipatasertib/GDC0068; 3.162 µM) of 0.55 GR and a GR value (Ipatasertib/GDC0068; 10 µM) of 0.289 GR. For the same cell line, the GR value (BVD523; 0.001 µM) was 1.17 GR, the GR value (BVD523; 0.003162 µM) was 0.925 GR and the GR value (BVD523; 0.01 µM) was 1.04 GR. For the same cell line, the GR value (BVD523; 0.03162 µM) was 0.941 GR, the GR value (BVD523; 0.1 µM) was 1.06 GR and the GR value (BVD523; 0.3162 µM) was 0.956 GR. It also gave a GR value (BVD523; 1 µM) of 0.985 GR, a GR value (BVD523; 3.162 µM) of 0.761 GR and a GR value (BVD523; 10 µM) of 0.525 GR. The GR value (Buparlisib/NVP-BKM120; 0.001 µM) was 1.05 GR, the GR value (Buparlisib/NVP-BKM120; 0.003162 µM) was 1.07 GR and the GR value (Buparlisib/NVP-BKM120; 0.01 µM) was 0.976 GR. The GR value (Buparlisib/NVP-BKM120; 0.03162 µM) was 0.845 GR, the GR value (Buparlisib/NVP-BKM120; 0.1 µM) was 0.505 GR and the GR value (Buparlisib/NVP-BKM120; 0.3162 µM) was 0.186 GR. It also gave a GR value (Buparlisib/NVP-BKM120; 1 µM) of -0.365 GR, a GR value (Buparlisib/NVP-BKM120; 3.162 µM) of -0.533 GR and a GR value (Buparlisib/NVP-BKM120; 10 µM) of -0.494 GR. The GR value (Luminespib/NVP-AUY922; 0.0001 µM) was 0.887 GR, the GR value (Luminespib/NVP-AUY922; 0.0003162 µM) was 0.966 GR and the GR value (Luminespib/NVP-AUY922; 0.001 µM) was 0.942 GR. The GR value (Luminespib/NVP-AUY922; 0.003162 µM) was 0.648 GR, the GR value (Luminespib/NVP-AUY922; 0.01 µM) was 0.165 GR and the GR value (Luminespib/NVP-AUY922; 0.03162 µM) was -0.079 GR. For the same cell line, the GR value (Luminespib/NVP-AUY922; 0.1 µM) was -0.156 GR, the GR value (Luminespib/NVP-AUY922; 0.3162 µM) was -0.214 GR and the GR value (Luminespib/NVP-AUY922; 1 µM) was -0.227 GR. The GR value (Vorinostat; 0.001 µM) was 0.865 GR, the GR value (Vorinostat; 0.003162 µM) was 0.936 GR and the GR value (Vorinostat; 0.01 µM) was 1.02 GR. For the same cell line, the GR value (Vorinostat; 0.03162 µM) was 0.999 GR, the GR value (Vorinostat; 0.1 µM) was 1.06 GR and the GR value (Vorinostat; 0.3162 µM) was 0.941 GR. It also gave a GR value (Vorinostat; 1 µM) of 0.551 GR, a GR value (Vorinostat; 3.162 µM) of -0.345 GR and a GR value (Vorinostat; 10 µM) of -0.448 GR. The GR value ([1]; 0.001 µM) was 0.974 GR, the GR value ([1]; 0.003162 µM) was 0.901 GR and the GR value ([1]; 0.01 µM) was 0.723 GR. The GR value ([1]; 0.03162 µM) was 0.933 GR, the GR value ([1]; 0.1 µM) was 0.894 GR and the GR value ([1]; 0.3162 µM) was 0.766 GR. It also gave a GR value ([1]; 1 µM) of 0.655 GR, a GR value ([1]; 3.162 µM) of 0.747 GR and a GR value ([1]; 10 µM) of 0.392 GR. It also gave a GR value ([2]; 0.001 µM) of 1.03 GR, a GR value ([2]; 0.003162 µM) of 1.08 GR and a GR value ([2]; 0.01 µM) of 1.01 GR. It also gave a GR value ([2]; 0.03162 µM) of 1.09 GR, a GR value ([2]; 0.1 µM) of 0.997 GR and a GR value ([2]; 0.3162 µM) of 0.985 GR. It also gave a GR value ([2]; 1 µM) of 0.932 GR, a GR value ([2]; 3.162 µM) of 0.808 GR and a GR value ([2]; 10 µM) of 0.486 GR. It also gave a GR value (Tivantinib/ARQ197; 0.001 µM) of 1.08 GR, a GR value (Tivantinib/ARQ197; 0.003162 µM) of 1.04 GR and a GR value (Tivantinib/ARQ197; 0.01 µM) of 1.1 GR. The GR value (Tivantinib/ARQ197; 0.03162 µM) was 1.03 GR, the GR value (Tivantinib/ARQ197; 0.1 µM) was 0.841 GR and the GR value (Tivantinib/ARQ197; 0.3162 µM) was 0.191 GR. For the same cell line, the GR value (Tivantinib/ARQ197; 1 µM) was -0.542 GR, the GR value (Tivantinib/ARQ197; 3.162 µM) was -0.468 GR and the GR value (Tivantinib/ARQ197; 10 µM) was -0.479 GR. For the same cell line, the GR value (Pictilisib/GDC0941; 0.001 µM) was 0.964 GR, the GR value (Pictilisib/GDC0941; 0.003162 µM) was 0.961 GR and the GR value (Pictilisib/GDC0941; 0.01 µM) was 0.898 GR. For the same cell line, the GR value (Pictilisib/GDC0941; 0.03162 µM) was 0.642 GR, the GR value (Pictilisib/GDC0941; 0.1 µM) was 0.37 GR and the GR value (Pictilisib/GDC0941; 0.3162 µM) was 0.101 GR. For the same cell line, the GR value (Pictilisib/GDC0941; 1 µM) was -0.096 GR, the GR value (Pictilisib/GDC0941; 3.162 µM) was -0.251 GR and the GR value (Pictilisib/GDC0941; 10 µM) was -0.391 GR. The GR value ([3]; 0.001 µM) was 0.518 GR, the GR value ([3]; 0.003162 µM) was 0.487 GR and the GR value ([3]; 0.01 µM) was 0.464 GR. For the same cell line, the GR value ([3]; 0.03162 µM) was 0.273 GR, the GR value ([3]; 0.1 µM) was 0.269 GR and the GR value ([3]; 0.3162 µM) was 0.0911 GR. For the same cell line, the GR value ([3]; 1 µM) was 0.0661 GR, the GR value ([3]; 3.162 µM) was -0.0273 GR and the GR value ([3]; 10 µM) was -0.533 GR. For the same cell line, the GR value (Doxorubicin; 0.0003162 µM) was 1.09 GR, the GR value (Doxorubicin; 0.001 µM) was 1.03 GR and the GR value (Doxorubicin; 0.003162 µM) was 1.05 GR. For the same cell line, the GR value (Doxorubicin; 0.01 µM) was 1.01 GR, the GR value (Doxorubicin; 0.03162 µM) was 0.553 GR and the GR value (Doxorubicin; 0.1 µM) was -0.11 GR. The GR value (Doxorubicin; 0.3162 µM) was -0.234 GR, the GR value (Doxorubicin; 1 µM) was -0.385 GR and the GR value (Doxorubicin; 3.162 µM) was -0.452 GR.
